Experiments:
Male, Fischer 344 rats = assay: Block of Conditioned Avoidance Responding (Rat) test (CAR); conditions: for CAR 15 mg/kg IP Administration (% change CAR) / CAR 5 mg/kg IP Administration (% change CAR): negative number = blockade of CAR
Source text: Apparatus: Rat operant chambers, housed within sound attenuated booths, both from Capden Instruments Ltd., were used in this test. The test chamber (8" H x […] D) is constructed of aluminum and plexiglass with floor grid bars of stainless-steel (1/8" O.D.) spaced 9/16" apart. A stainless-steel operation level 1-1/2" wide projects 3/4" into the chamber and is positioned 2-2/8" above the grid floor. The shock stimulus is delivered via the grid floor by a Coulbourn Instruments solid state module. The parameters of the test and the collection of data are controlled automatically.
The rats are trained for two weeks to approach criterion levels in the avoidance test (90% avoidance rate). One-hour training sessions are run at about the same time each day for four or five days a week. The training session consists of 120 trials, with the conditioned stimuli presented every 30 sec. A trial begins with presentation of the conditioned stimuli (a light and a tone). If the rat responds by depressing the operant lever during the 15-second presentation of the conditioned stimuli, the trial is terminated and the animal is credited with a CAR. Failure to respond during the conditioned stimuli causes the presentation of the unconditioned stimulus (UCS), a 0.7 mA shock which is accompanied by a light and tone for five seconds. If the rat depressed the lever within the ten-second period, the shock and trial are terminated and an escape response recorded. If the rat fails to depress the lever during the UCS (shock), the trial is terminated after ten seconds of shock and the absence of a response is scored as a failure to escape. Intertrial level presses have no effect. If a rat performs at the 90% CAR level for two weeks, it is then run twice a week on the test schedule (see below) until baseline performance stabilized.
Trained rats are run in a one-hour session on two consecutive days at the same time and in the same test chamber each day. The sessions consist of 60 trials, one every minute. The conditioned stimuli are presented for 15 sec (maximum) and the unconditioned stimuli five sec (maximum). On Day 1, a vehicle solution is administered to the rats at a time preceding the trial run corresponding to the pretreatment time for the test compound. The route of administration and the volume of vehicle are also matched to that of the test compound.
The percent change in CAR on the drug treatment day compared to vehicle pretreatment day is the key measure. The percent change (% change) in CAR is determined using the following formula: % change CAR = ((% CAR for Day 2/% CAR for Day 1) x 100)-100 [formula]
A negative number indicates a blockade of CAR, whereas a positive number would indicate increased CAR. The test results are reported as the mean % change for the group of rats. Failure to escape, a measure of the general sedative potential of the compound, was calculated for each animal as follows: % Failures = # of Failures to Escape/# of trials [formula]
The % failures, viz., loss of escape, is also reported as a group mean. Failures to escape are monitored closely and a session is terminated if ten failures occurred.
In the Tables and formulas therein, OiPr is isopropoxy, Me is methyl, MeO is methoxy, Et is ethyl, Ph is phenyl, n-Bu is normal butyl, cC6H11 is cyclohexyl, BOC is t-butyloxycarbonyl, Ac is acetyl, and NT is not tested in that partcular test. The escape loss numbers are shown at CAR 5 mg/kg unless otherwise noted.

Male Charles-River rats = assay: Rat Glass Bead Test (propulsive motility of the distal colon); assay type: in vivo; conditions: mean expulsion time of glass bead
Description: The rat glass bead test is used to evaluate the action of compounds on propulsive motility of the distal colon. Male Charles-River rats weighing 50-90 grams are fasted for at least 18 hours in individual cages with water provided. Groups of rats are then dosed by the indicated route at the appropriate pretreatment time. A 4 mm glass bead is then inserted 3.5 cm into the distal colon through the anus using a 4 mm diameter glass rod. Rats are then placed in open top glass jars and observed for 60 minutes. The time for expulsion of the bead is noted for each rat. Rats not expelling the bead after 60 minutes are necropsied and the presence of the bead in the colon confirmed. […] Statistical analysis is done using one way analysis of variance and Fisher's LSD comparison. A probability of less than 0.05 is considered to be statistically significant.

[1] = molecular target: T1, D-2 (dopamine-2) receptors (Rattus norvegicus, UniProt P61169); assay: biochemical; assay type: binding, male, Wistar rats; conditions: rat striatum P2 fraction, 3H-spiperone 0.05 nM; read-out: Receptor Binding (Ki nM) D2
T1 construct: The D2 assay employed a P2 fraction from the striatum, the ligand ^3H-spiperone at a concentration of 0.05 nM; from tissue; host or cells: rat striatum, P2 fraction (synaptosomal membranes), male Wistar rats
T1 sequence (P61169 whole entry): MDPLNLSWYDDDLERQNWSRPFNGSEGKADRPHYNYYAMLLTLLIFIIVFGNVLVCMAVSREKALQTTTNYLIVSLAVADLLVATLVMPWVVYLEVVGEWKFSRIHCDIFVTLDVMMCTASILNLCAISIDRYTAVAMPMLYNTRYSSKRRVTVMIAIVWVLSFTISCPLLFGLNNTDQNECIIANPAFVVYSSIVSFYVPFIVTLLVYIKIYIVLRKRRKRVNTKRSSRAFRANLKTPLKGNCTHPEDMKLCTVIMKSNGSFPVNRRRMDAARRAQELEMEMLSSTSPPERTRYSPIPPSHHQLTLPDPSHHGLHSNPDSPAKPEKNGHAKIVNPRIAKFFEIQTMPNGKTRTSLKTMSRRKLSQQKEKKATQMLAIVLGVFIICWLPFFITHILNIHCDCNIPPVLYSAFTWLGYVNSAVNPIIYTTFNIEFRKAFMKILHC
Description: The dopamine D2 binding activity of compounds was determined using a P2 fraction (synaptosomal membranes) prepared from male, Wistar rats.
The data from this assay were analyzed by calculating the percent inhibition of the binding of the tritiated ligands by given concentrations of the test compound. Kl values, where given, were obtained from the logit analysis of concentration-inhibition curves.

| Structure (SMILES) | CAR 15 mg/kg IP Administration (% change CAR) (Male, Fischer 344 rats) [%] | (Escape Loss) % failures to escape (Male, Fischer 344 rats; at CAR 15 mg/kg IP) [%] | Glass bead expulsion time (Male Charles-River rats; IP, 1.0 mg/kg) [min] | CAR 5 mg/kg IP Administration (% change CAR) (Male, Fischer 344 rats) [%] | (Escape Loss) % failures to escape (Male, Fischer 344 rats; at CAR 5 mg/kg IP) [%] | Ki [1] [nM] | Glass bead expulsion time (Male Charles-River rats; PO, 10.0 mg/kg) [min] | Glass bead expulsion time (Male Charles-River rats; PO, 40.0 mg/kg) [min] |
| --- | --- | --- | --- | --- | --- | --- | --- | --- |
| O=C(c1cccc(CN2CCN(c3ccccc3Cl)CC2)c1)N1CCCCC1 [Compound 89] | -68 | 0 | 16 |  |  |  |  |  |
| CC(C)Oc1ccccc1N1CCN(Cc2cccc(C(=O)N(C)C3CCCCC3)c2)CC1 [Compound 72] |  |  | 29 | -99 | 21 |  |  |  |
| CCOc1ccccc1N1CCN(Cc2cccc(C(=O)N3CCCCCC3)c2)CC1 [Compound 83] |  |  | 21 | -97 | 26 |  |  |  |
| CC(C)Oc1ccccc1N1CCN(Cc2ccccc2C(=O)N(C)C2CCCC2)CC1 [Compound 112] |  |  | 11 |  |  | 16 |  |  |
| CCCc1ccccc1N1CCN(Cc2cccc(C(=O)N3CCCCC3)c2)CC1 [Compound 81] | -8 | 0 | 22 |  |  |  |  |  |
| CC(C)Oc1ccccc1N1CCN(Cc2ccc(C(=O)N3CCCCC3)cc2)CC1.Cl.Cl [Compound 103, 1-[4-[[4-[2-(1-Methylethoxy)phenyl]-1-piperazinyl]methyl]benzoyl]piperidine Dihydrochloride] |  |  | 43 |  |  | ~100 |  |  |
| O=C(c1cccc(CN2CCN(c3nsc4ccccc34)CC2)c1)N1CCCCC1 [Compound 32] |  |  | 41 | -90 | 8 |  |  |  |
| CC(C)Oc1ccccc1N1CCN(Cc2cccc(C(=O)NC3CCCCC3)c2)CC1 [Compound 71] | -86 | 0 | 23 |  |  |  |  |  |
| CC(C)Oc1ccccc1N1CCN(Cc2ccccc2C(=O)N2CCCCCC2)CC1 [Compound 113] |  |  |  |  |  | 11 | 15 |  |
| O=C(c1cccc(CN2CCN(c3cccc4ccccc34)CC2)c1)N1CCCCC1 [Compound 35] | -19 | 0 |  |  |  |  | 19 |  |
| N#Cc1ccccc1N1CCN(Cc2cccc(C(=O)N3CCCCC3)c2)CC1 [Compound 90] |  |  | 27 | -74 | 5 |  |  |  |
| CC(=O)N(C)C(=O)c1cccc(CN2CCN(c3ccccc3OC(C)C)CC2)c1 [Compound 73] |  |  |  | -48 | 22 |  |  | 25 |
| COc1ccc(CN2CCC(c3ccccc3OC(C)C)CC2)cc1C(=O)N1[C@H](C)CCC[C@@H]1C [Compound 15] | -86 | 30 |  |  |  | 43 |  |  |
| CC(C)Oc1ccccc1N1CCN(Cc2cccc(C(=O)N3CCC[C@H]3C(=O)OCc3ccccc3)c2)CC1 [Compound 13] | -4 | 0 |  |  |  | 10 |  |  |
| CC(C)Oc1ccccc1N1CCN(Cc2cccc(C(=O)N(C)Cc3ccccc3)c2)CC1 [Compound 74] |  |  |  | -23 | 1 | 13 |  |  |
| CC(C)Oc1ccccc1N1CCN(Cc2cccc(C(=O)N3C(C)(C)CCCC3(C)C)c2)CC1 [Compound 12] | -92 | 9 |  |  |  | 4.7 |  |  |

| Structure (SMILES) | CAR 15 mg/kg IP Administration (% change CAR) (Male, Fischer 344 rats) [%] | (Escape Loss) % failures to escape (Male, Fischer 344 rats; at CAR 15 mg/kg IP) [%] | Glass bead expulsion time (Male Charles-River rats; IP, 1.0 mg/kg) [min] | CAR 5 mg/kg IP Administration (% change CAR) (Male, Fischer 344 rats) [%] | (Escape Loss) % failures to escape (Male, Fischer 344 rats; at CAR 5 mg/kg IP) [%] | Ki [1] [nM] | Glass bead expulsion time (Male Charles-River rats; PO, 10.0 mg/kg) [min] | Glass bead expulsion time (Male Charles-River rats; PO, 40.0 mg/kg) [min] |
| --- | --- | --- | --- | --- | --- | --- | --- | --- |
| CC(C)Oc1ccccc1N1CCN(Cc2cccc(C(=O)N3CCCCC3=O)c2)CC1.O=C(O)/C=C/C(=O)O [Compound 66, 1-[3-[[4-[2-(1-Methylethoxy)phenyl]-1-piperazinyl]methyl]benzoyl]-2-piperidone Fumarate] | -92 | 0 | 18 |  |  |  |  |  |
| CC(C)Oc1ccccc1N1CCN(Cc2cccc(C(=O)N3CCOCC3)c2)CC1 [Compound 56] |  |  | 15 |  |  |  |  |  |
| CC(C)Oc1cc(F)ccc1N1CCN(Cc2cccc(C(=O)N3CCCCC3)c2)CC1 [Compound 78] |  |  | 28 | -82 | 4 |  |  |  |
| O=C(c1cccc(CN2CCN(c3cccc(C(F)(F)F)c3)CC2)c1)N1CCCCC1 [Compound 92] | -72 | 3 | 17 |  |  |  |  |  |
| CC(C)Oc1ccccc1N1CCN(Cc2cccc(C(=S)N3CCCCC3)c2)CC1.Cl [Compound 1, 1-[3-[[4-[2-(1-Methylethoxy)phenyl]-1-piperazinyl]methyl]thiobenzoyl]piperidine Hydrochloride] |  |  |  | -71 | 20 | 8 |  |  |
| CC(C)Oc1ccccc1N1CCN(Cc2cccc(C(=O)N3CCC4CCCCC4C3)c2)CC1 (stereo not shown) [Compound 61] |  |  |  | -36 | 3 | 11.4 |  |  |
| CC(C)Oc1ccccc1N1CCN(Cc2cccc(C(=O)NCCCCCCN)c2)CC1 [Compound 97] | -99 | 26 |  |  |  | 15 |  |  |
| CC(C)Oc1ccccc1C1CCN(Cc2cccc(C(=O)N3CCCCC3)c2)CC1.Cl [Compound 38, 1-[3-[[4-[2-(1-Methylethoxy)phenyl]-1-piperidinyl]methyl]benzoyl]-piperidine hydrochloride] |  |  |  | -92 | 5 | 2.8 |  |  |
| CC(C)Oc1ccccc1N1CCN(Cc2cccc(C(=O)N3CCCC3CO)c2)CC1 (stereo not shown) [Compound 26] | -100 | 43 |  |  |  | 9 |  |  |
| CC(C)Oc1ccccc1N1CCN(Cc2cccc(C(=O)N3CCCCC3CO)c2)CC1 (stereo not shown) [Compound 21] | -99 | 43 |  |  |  | 5.2 |  |  |
| CCN1CCCC1CNC(=O)c1cccc(CN2CCN(c3ccccc3OC(C)C)CC2)c1 (stereo not shown) [Compound 76] | -75 | 0 |  |  |  | 13.9 |  |  |
| C[C@@H]1CCC[C@H](C)N1C(=O)c1cccc(CN2CCN(c3ccc(Cl)c(Cl)c3)CC2)c1 [Compound 14] | -63 | 3 |  |  |  | 6.5 |  |  |
| COc1ccc(CN2CCN(c3ccccc3OC(C)C)CC2)cc1C(=O)N1CCCCC1 [Compound 29] |  |  |  | -98 | 50 | 32 |  |  |
| CCOC(=O)C1CCCCN1C(=O)c1cccc(CN2CCN(c3ccccc3OC(C)C)CC2)c1 (stereo not shown) [Compound 19] | -97 | 46 |  |  |  | 4.1 |  |  |
| CC(C)Oc1ccccc1N1CCN(Cc2ccc(N)c(C(=O)N3CCCCC3)c2)CC1 [Compound 17] | -100 | 87 |  |  |  | 6.4 |  |  |
| CC(C)Oc1ccccc1N1CCN(Cc2cccc(C(=O)N3CCCCCCC3)c2)CC1 [Compound 55] |  |  | 13 | -93 | 27 |  |  |  |

— patent EP0563345B1, “NOVEL 4-ARYLPIPERAZINES AND 4-ARYLPIPERIDINES” (MCNEILAB, INC., priority 1991, dated 1993)
